For data set [1], the system named is mice. The data set is described as follows: Physical dependence (naloxone-precipitated withdrawal jumping). Particulars: i.v. once daily for 5 days, PZM21 and 6a 20 mg/kg, morphine 2 mg/kg, jumps over 20 min.
Method: (§2) The mice were group-housed in a controlled temperature environment and subjected to a 12 h light/dark cycle (lights on from 07:00 to 19:00). Food and water were provided ad libitum. All animal procedures were conducted in accordance with the policies and recommendations of the International Association for the Study of Pain and the National Health and Animal Welfare Committee of the Beijing Institute of Pharmacology, with the aim of minimizing the number of animals used and their suffering.
The subject of data set [2] is mice. The data set is described as follows: Respiratory depression (blood pO2, blood gas analyzer). Particulars: single i.v. dose 20 mg/kg (morphine 4 mg/kg), 5-40 min.
Method: as §2
For a further data set, the target named is T1, human μ-opioid receptor (Homo sapiens, UniProt P35372).
T1 construct: expressed in transfected cells; host or cells: CHO (CHO/μOR cells)
The data set is described as follows: cell-based. It counts as cell-based. Particulars: CHO/μOR cells; for EC50: cAMP inhibition, "-" = no measurable activity, read-out: EC50 (nM) (95% CI), µOR-Gi/o activation assay; for EC50 / Emax: n = 3; for Emax: at the concentration printed in parentheses in the cell, read-out: Max Effect ± SEM (%), µOR-Gi/o activation assay. The protocol:
The inhibition assay was performed as described previously. In brief, tested compound dilutions (with final concentrations of 100 µM, 50 µM, 10 µM, 1 µM, 500 nM, 100 nM, 50 nM, 10 nM, 1 nM, and 100 pM) were produced in saline or DMSO in triplicate. CHO/μOR cells were suspended in the assay buffer and counted, maintaining a cell density of 2000 cells per well, with 5 µL from each well seeded into a 384-well plate. Subsequently, 5 µL of the tested compound solution per well was dispensed into the plate, which was then placed in a 25 °C incubator and incubated in the dark for 30 min. Next, 10 µL of cAMP standard working solution was added to the empty wells of the plate, followed by the addition of 5 µL of Eu-cAMP and Anti-cAMP per well. The plate was subsequently placed back in a 25 °C incubator and further incubated in the dark for 1 h.
CHO cells expressing the human μ-opioid receptor were cultivated for the assessment of compound effects. […] Cells collected during the exponential phase of growth were dissociated without enzymes to preserve receptor integrity, resuspended in assay buffer, and counted to achieve a uniform concentration. Cell density was adjusted to 2000 cells per well in a 384-well plate, promoting uniform distribution and optimal receptor presence. Post-seeding at 25 °C in darkness facilitated cell adherence and stabilization prior to compound introduction. Compounds were added in serial dilutions, with meticulous dispensing techniques ensuring dose uniformity. Following a 1 h incubation at 25 °C, TR-FRET reagents were applied to measure cAMP levels, indicative of μOR activity. The Envision system recorded these levels, quantifying compound inhibitory effects. Meticulous aseptic techniques and vigilant monitoring were imperative throughout to guarantee data precision from the assay.

Data set [3] addresses T2, human μOR β-arrestin2 pathway (Homo sapiens, UniProt P35372).
T2 construct: β-galactosidase enzyme fragment (PathHunter complementation tag); host or cells: U2OS (U2OS/human μOR β-arrestin cells)
The data set is described as follows: cell-based. The class given is cell-based. Particulars: for Emax: read-out: Max Effect ± SEM (%), µOR β-arrestin recruitment assay; for EC50: "-" = no measurable activity, read-out: EC50 (nM) (95% CI), µOR β-arrestin recruitment assay. The procedure: In this assay, optical signal values were detected employing the PathHunter® (DiscoverX, Shanghai, China) Detection Kit assay method. The agonistic activity of tested compounds on the human μOR β-arrestin2 pathway was quantified using a β-galactosidase-based enzyme fragment complementation assay. In brief, tested compound dilutions (with final concentrations of 100 μM, 50 μM, 10 μM, 1 μM, 500 nM, 100 nM, 50 nM, 10 nM, 1 nM, and 100 pM) were produced in saline or DMSO in triplicate. Next, 100 nL of the tested compound solution per well was dispensed into a 384-well cell culture plate. The U2OS/human μOR β-arrestin cells were resuspended in Opti-MEM and counted to achieve a cell density of 4000 cells per well, and 20 μL from each well was seeded into the 384-well cell culture plate. The plate was subsequently incubated at 37 °C in the dark for 120 min. Post-incubation, the cell plate was equilibrated to room temperature for 10–20 min, and 5 μL of the detection reagent were added to each well. Following a 60 min incubation at 25 °C, chemiluminescent readings were obtained using the envision system.
The cells were maintained at 37 °C with 5% CO2 in McCoy’s 5a medium with supplements and cultivated utilizing precise techniques to ensure accurate, reproducible results. Cells were gently dissociated for assays to maintain receptor integrity and resuspended in Opti-MEM® for compatibility with the PathHunter® (DiscoverX, Shanghai, China). Detection Kit. Cell density was adjusted to 4000 cells per well in a 384-well plate, to ensure that a uniform monolayer was established for the β-galactosidase assay. After seeding and incubation in the dark at 37 °C to facilitate cell attachment, the plates were equilibrated to room temperature prior to compound treatment. Serial dilutions of the compounds were assessed for pharmacological effect. A detection reagent was then added to measure β-galactosidase activity as indicative of μ-opioid receptor and β-arrestin2 interaction. Following reagent incubation, chemiluminescence was quantified, providing quantitative data on compound agonistic activity. Throughout, meticulous aseptic technique and strict adherence to protocols were imperative to ensure the integrity of the pharmacological data derived from these studies.
A general note: Recruitment of arrestin is a read-out of receptor activation apart from second messengers.

Data set [4] relates to mice. The data set is described as follows: Acetic acid-induced writhing test. It counts as in vivo, CD-1 mice. Particulars: 20 mg/kg i.v. tail vein. The protocol:
(§1) Food and water were provided ad libitum.
The acetic acid-induced writhing test was performed as described previously. In brief, after pretreatment with the test compound at a dose of 20 mg/kg via intravenous tail vein injection, 1% (v/v) glacial acetic acid was administered intraperitoneally (i.p.) at a dose of 10 mL/kg. Subsequently, the number of writhing responses over a 20 min period was recorded. The antinociception rate was calculated as the percentage of maximal possible effect (%MPE), where %MPE = 100 × (NWV − NWT)/NWV. NWV and NWT represent the average number of writhing responses of the vehicle and test groups, respectively.
Background: Writhing tests count abdominal constrictions after an irritant is injected.

The subject of data set [5] is mice. The data set is described as follows: Formalin paw-licking test. The class given is in vivo, CD-1 mice. Particulars: 20 mg/kg i.v. tail vein, Phase II. The procedure:
as §1
The formalin injection assay was performed as described previously. […] After 15 min, 30 µL of a 2.7% formalin solution was administered into the right hind paw of each mouse. Then, the mice were put into the cage and their behaviors were observed. The antinociception rate was quantified as the percentage of maximal possible effect (%MPE), calculated as %MPE = 100 × (PLTV − PLTT)/PLTV; PLTV and PLTT represent the average paw-licking duration during Phase II for the vehicle and test groups, respectively.

The test system of data set [6] is mice. The data set is described as follows: Hot-water tail withdrawal test. It counts as in vivo, CD-1 mice. Particulars: 20 mg/kg i.v. tail vein, 15 min post administration. The procedure: as §1
The hot-water tail withdrawal test was performed as described previously. In brief, the hot-water tail withdrawal test was conducted using a water bath maintained at 55 ± 0.5 °C. The distal 3 cm section of the mouse’s tail was immersed perpendicularly into the hot water. The duration for which the tail remained in the water was recorded as the initial tail withdrawal latency (TWL0). […] Following the administration of a single dose of the test compound (20 mg/kg, i.v.) or vehicle, the subsequent tail withdrawal latency (TWL) was measured at various time intervals (15, 30, 45, 60, and 90 min). To prevent potential tissue damage, a maximum cutoff latency of 16 s was enforced. Antinociception was quantified using the percentage of maximal possible effect (%MPE), calculated as %MPE = 100 × (TWL − TWL0)/(16 − TWL0).

Where [7] appears, read: U2OS/human μOR β-arrestin cells, at the concentration printed in parentheses in the cell, n = 3.
The mark [8] stands for this setting: U2OS/human μOR β-arrestin cells, n = 3.

Like-named read-outs stand apart in the source and are kept apart here. Some results are limits rather than exact numbers.

The source of these data is PMC11243066, “Synthesis and Biological Evaluation of Novel Biased Mu-Opioid Receptor Agonists” (Molecules, 2024).

T2 sequence (P35372 whole entry, the tested form may be a part): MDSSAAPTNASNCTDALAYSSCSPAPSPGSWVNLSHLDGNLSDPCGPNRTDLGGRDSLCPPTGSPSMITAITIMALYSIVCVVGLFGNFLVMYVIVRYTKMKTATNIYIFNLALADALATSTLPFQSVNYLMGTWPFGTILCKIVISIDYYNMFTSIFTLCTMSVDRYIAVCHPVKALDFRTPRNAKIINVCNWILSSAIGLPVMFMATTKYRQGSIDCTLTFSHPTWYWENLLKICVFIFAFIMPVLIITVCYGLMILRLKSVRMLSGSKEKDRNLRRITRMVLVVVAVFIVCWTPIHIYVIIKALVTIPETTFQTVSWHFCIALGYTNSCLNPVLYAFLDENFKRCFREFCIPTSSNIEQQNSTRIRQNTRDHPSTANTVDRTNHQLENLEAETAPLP
T1 sequence (P35372 whole entry): as the sequence (P35372 whole entry, the tested form may be a part) above

Regarding `CN1CC[C@]23c4c5ccc(O)c4O[C@H]2[C@@H](O)C=C[C@H]3[C@H]1C5` [Morphine], in the data set on mice [1], the “physical dependence: jumping after naloxone-precipitated withdrawal vs vehicle” value is “significantly greater frequency of jumping”. The “respiratory depression: partial pressure of oxygen in blood vs vehicle” value with mice [2] is on record as “significant reduction in the partial pressure of oxygen level”.

As to `COc1ccc(CCNC(=O)NC[C@H](Cc2cccc3ccccc23)N(C)C)cc1` [6e, (S)-1-(2-(dimethylamino)-3-(naphthalen-1-yl)propyl)-3-(4-methoxyphenethyl) urea], the EC50 (at human μ-opioid receptor; in data set [3] (setting [8])) was > 100000 nM throughout. The Emax on human μ-opioid receptor is -1.41 ± 5.21%; in data set [3] (setting [7]), 2.95 ± 1.37%.

In the case of `CN(C)[C@H](CNC(=O)NCc1ccc(F)cc1)Cc1cccc2ccccc12` [6c, (S)-1-(2-(dimethylamino)-3-(naphthalen-1-yl)propyl)-3-(4-fluorobenzyl) urea], the EC50 at human μ-opioid receptor was 72.8 nM; in data set [3] (setting [8]) it was > 100000 nM. In addition, the Emax at human μ-opioid receptor turned out to be 42.67 ± 0.27%; in data set [3] (setting [7]), 1.06 ± 0.93%.

With `Cc1ccccc1CCNC(=O)NC[C@H](Cc1cccc2ccccc12)N(C)C` [6f, (S)-1-(2-(dimethylamino)-3-(naphthalen-1-yl)propyl)-3-(2-methylphenethyl) urea], on human μ-opioid receptor, the “µOR agonist efficacy in Gi/o-protein signaling assay (in words)” value (“µOR agonist efficacy” for short) is “significant µOR agonist efficacy”, the EC50 came out at 107 nM and the Emax was found to be 84.8 ± 1.86%. For the same compound, in the data set with mice [4], the “analgesia rate (%MPE), acetic acid-induced writhing” value (shortened to “analgesia rate (%MPE)”) is recorded as “exceeding 97%”. Moreover, the Emax in data set [3] (setting [7]) worked out at 5.45 ± 1.75%. Moreover, in data set [3] (setting [8]), the EC50 is > 100000 nM. Also, in the data set on mice [5], the “antinociceptive efficacy (%MPE), formalin-induced paw licking, second phase” value stood at 59.32%.

Consider `C[C@@H](NC(=O)[C@@H](N)Cc1ccc(O)cc1)C(=O)NCC(=O)N(C)[C@@H](Cc1ccccc1)C(=O)NCCO` [DAMGO, [D-Ala2, N-MePhe4, Gly-ol]-enkephalin, reference compound], for which, in data set [3] (U2OS), the Emax was determined as 91.2%.

For `CN(C)[C@H](CNC(=O)NCC1CCCCC1)Cc1cccc2ccccc12` [6k, (S)-1-(cyclohexylmethyl)-3-(2-(dimethylamino)-3-(naphthalen-1-yl)propyl) urea], the EC50 (on human μ-opioid receptor; in data set [3] (setting [8])) was > 100000 nM in each case. The Emax at human μ-opioid receptor turned out to be 20.4 ± 10.6%; in data set [3] (setting [7]), 4.15 ± 0.02%. In addition, the “analgesia rate (%MPE)” value in the data set with mice [4] is “exceeding 97%”.

Consider `Cc1ccccc1CNC(=O)NC[C@H](Cc1cccc2ccccc12)N(C)C` [6h, (S)-1-(2-(dimethylamino)-3-(naphthalen-1-yl)propyl)-3-(2-methylbenzyl) urea], for which, on human μ-opioid receptor, the “µOR agonist efficacy” value is “significant µOR agonist efficacy”. Further, the EC50 is 13.1 nM at human μ-opioid receptor and > 100000 nM in data set [3] (setting [8]). Moreover, the Emax at human μ-opioid receptor was 41.7 ± 0.07%; in data set [3] (setting [7]) it was 2.19 ± 1.91%. The “pain inhibition rate (%MPE), hot-water tail-withdrawal test” value with mice [6] was found to be 41.73%. Further, in the data set with mice [4], the “analgesia rate (%MPE)” value is recorded as “exceeding 97%”. Moreover, the “antinociceptive efficacy (%MPE), formalin-induced paw licking, second phase” value with mice [5] amounted to 78.03%.

Regarding `CN(C)[C@H](CNC(=O)NCc1ccco1)Cc1cccc2ccccc12` [6j, (S)-1-(2-(dimethylamino)-3-(naphthalen-1-yl)propyl)-3-(furan-2-ylmethyl) urea], the “µOR agonist efficacy” value on human μ-opioid receptor is “significant µOR agonist efficacy”. Further, the values for the EC50 (at human μ-opioid receptor; in data set [3] (setting [8])) were 97.8 nM and > 100000 nM, respectively. Also, the Emax worked out at 27.2 ± 1.71% at human μ-opioid receptor and 1.63 ± 0.32% in data set [3] (setting [7]).

As for `CN(C)[C@H](CNC(=O)NCCc1ccc(F)cc1)Cc1cccc2ccccc12` [6d, (S)-1-(2-(dimethylamino)-3-(naphthalen-1-yl)propyl)-3-(4-fluorophenethyl) urea], the results for the EC50 (on human μ-opioid receptor; in data set [3] (setting [8])) were 88 nM and > 100000 nM, respectively. Also, the results for the Emax (on human μ-opioid receptor; in data set [3] (setting [7])) were 87.8 ± 1.18% and 7.72 ± 2.88%, respectively.

As for `CN(C)[C@H](CNC(=O)Nc1ccccc1)Cc1cccc2ccccc12` [6g, (S)-1-(2-(dimethylamino)-3-(naphthalen-1-yl)propyl)-3-phenyl urea], the “µOR agonist efficacy” value at human μ-opioid receptor is given as “significant µOR agonist efficacy”. Besides, the EC50 is 59.5 nM on human μ-opioid receptor and > 100000 nM in data set [3] (setting [8]). Further, the Emax amounted to 24.6 ± 0.4% on human μ-opioid receptor and 1.12 ± 0.52% in data set [3] (setting [7]).

For `CN(C)[C@H](CNC(=O)NC1CCCCC1)Cc1cccc2ccccc12` [6l, (S)-1-cyclohexyl-3-(2-(dimethylamino)-3-(naphthalen-1-yl)propyl) urea], the EC50 (on human μ-opioid receptor; in data set [3] (setting [8])) was > 100000 nM each time. For the same compound, the Emax amounted to 18.1 ± 1.81% on human μ-opioid receptor and 1.96 ± 0.45% in data set [3] (setting [7]).

With `CN(C)[C@H](CNC(=O)NCCc1ccccc1)Cc1cccc2ccccc12` [6b, (S)-1-(2-(dimethylamino)-3-(naphthalen-1-yl)propyl)-3-phenethyl urea], the EC50 at human μ-opioid receptor was 110 nM; in data set [3] (setting [8]), > 100000 nM. Further, the Emax on human μ-opioid receptor is 73.9 ± 2.38%; in data set [3] (setting [7]), 1.99 ± 1.77%. Further, the “pain inhibition rate (%MPE), hot-water tail-withdrawal test” value in the data set on mice [6] was 35.89%.

In the case of `Cc1ccccc1NC(=O)NC[C@H](Cc1cccc2ccccc12)N(C)C` [6i, (S)-1-(2-(dimethylamino)-3-(naphthalen-1-yl)propyl)-3-(o-tolyl) urea], the EC50 (on human μ-opioid receptor; in data set [3] (setting [8])) was > 100000 nM throughout. Besides, the Emax on human μ-opioid receptor was determined as 7.1 ± 0.77%; in data set [3] (setting [7]) it was 1.96 ± 0.72%.
